Our source for the contact angle and proliferation of osteoblasts values is patent publication US20130224795A1, “IMMOBILIZATION METHOD OF BIOACTIVE MOLECULES USING POLYPHENOL OXIDASE” (Ajou University Industry-Academic Cooperation Foundation, priority 2010, published 2013).

A short description of data set [1]: Contact angle measurement on immobilized substrate surfaces. To be noted: stainless steel or titanium; immobilization 30 min; tyramine with tyrosinase 0.4 KU/mL, dopamine without. The data set is classed as physicochemical. How it is done: For experiments, dopamine and tyramine/tyrosinase were immobilized onto metal surfaces. In this regard, 450 μL of phosphate saline buffer was added to a piece of stainless steel or titanium metal and mixed with 40 μL of dopamine or tyramine having a concentration of 100 μg/mL. In the case of tyramine, tyrosinase having a concentration of 0.4 KU/mL was added in an amount of 10 μL. For effective comparison, a reaction was performed for 30 min. After immobilization, the specimens were washed three to five times with distilled water. An analysis was made of the results using contact angles and amine distributions on the surface. For contact angle measurements, droplets of 1 μL were deposited on a specimen surface and the angle at which the droplet interface meets the surface was measured using a contact angle meter (GBX Inc., France) and image analysis software.
Contact angles were measured to examine the change in hydrophilicity of bioactive molecule-immobilized surface. Droplets of 1 μL were deposited on a specimen surface after which contact angles were measured using a contact anglemeter (GBX Inc., France) equipped with image analysis software.

For a further data set, the system named is osteoblasts (MC3T3-E1). Briefly: Cell proliferation assay (MTT). The data set is classed as cell-based. The following applies: immobilized stainless steel; 1×10^4 cell/cm^2; 7 days; versus bare surface. The protocol: For cell proliferation assay, osteoblasts (MC3T3-E1) were cultured at a density of 1×10^4 cell/cm^2 for 7 days on RGD- or gelatin-immobilized stainless steel, titanium or polyurethane surfaces, followed by conducting an MTTassay. Each specimen is represented in the form of, for example, ST-RGD 0.17 which stands for the immobilization of RGD at a concentration of 0.17 μg/cm^2 on stainless steel.

`NCCc1ccc(O)c(O)c1` [dopa, dopamine] had a contact angle in data set [1] of 45 °.

Compound `NCCc1ccc(O)cc1` [tyramine] had a contact angle in data set [1] of 30 °. In the case of gelatin-poly(ethylene glycol)-tyramine, the proliferation of osteoblasts result with osteoblasts (MC3T3-E1) is “improved the proliferation”.
